Laboratory results: paper PMC7829355, “Antimicrobial Activity of Lipopeptide Biosurfactants Against Foodborne Pathogen and Food Spoilage Microorganisms and Their Cytotoxicity” (Frontiers in Microbiology, 2021)
Values after ≈ are worked out from the molar mass of the structure shown. Values joined by “and” are separate entries in the source; they are usually repeats but may differ in a detail not shown here. Equal values may be shown once. Read-outs that look alike come from different tables or passages of the source.

Key:
[1] = system: Rhizopus stolonifer IMI 017314; assay: Antifungal susceptibility against filamentous fungi, broth microdilution; format: cell-based
Procedure: (§1) In this set of experiments, Candida krusei ATCC 6258 and amphotericin B were used to perform quality control tests for validation. As mentioned above, the test medium used was RPMI-1640 broth with MOPS buffer. Tests were performed in U-shaped 96-well plates in triplicates and the OD450nm was recorded after 7 days of incubation at 30°C. The fungi tested were Rhizopus stolonifer IMI 017314 and Paecilomyces variotii and Byssochamys fulva IMI 040021.

Paecilomyces variotii = assay: as above; format: cell-based
Procedure: as §1

[2] = system: Byssochamys fulva IMI 040021; assay: as above; format: cell-based, Byssochlamys fulva
Procedure: as §1

Candida krusei ATCC 6258 = assay: Antifungal susceptibility against yeast, broth microdilution in RPMI-1640; format: cell-based; conditions: for MIC: Pichia kudriavzevii, ATCC6258, C. krusei, RPMI-1640 liquid media
Procedure: The antifungal susceptibility test against yeasts was performed according to the broth microdilution method, as described previously ([Urbañski et al., 2002]; [Schwalbe et al., 2007]). Candida krusei ATCC 6258 was used as the quality control organism, to verify that antifungal concentrations were prepared properly. In addition, amphotericin B, an effective antifungal antibiotic produced by Streptomyces nodosus and part of the WHO List (World Health Organization) of Essential Medicines, was used as a reference compound. The test medium used was RPMI-1640 (with glutamine, without bicarbonate and with a pH indicator) broth with [3-(N-morpholino)]-propanesulfonic acid (MOPS) buffer. All tests were performed in U-shaped 96-well plates. Three technical replicates of each assay were carried out on the same day with the same culture and chemical compound with the aforementioned experiment repeated also in triplicate on different days using different cultures (biological replicates) resulting in a total of nine replicates for each assay. The yeasts tested were Zygosaccharomyces bailli NCYC 464 and Debaryomyces hansenii NCYC 102.

Gram-positive bacteria = assay: Antibacterial broth microdilution MIC, summary over Gram-positive strains; format: cell-based; conditions: range over the Gram-positive strains; read-out: MICs for Gram-positive bacteria
[3] = system: Salmonella enterica NCTC 5188; assay: Antibacterial susceptibility, broth microdilution MIC; format: cell-based; conditions: NCTC5188, S. enterica, 24 h
[4] = system: Pseudomonas aeruginosa NCTC 10332; assay: as above; format: cell-based; conditions: 24 h
Procedure: (§2) The antibacterial susceptibility testing was performed following the broth microdilution methodology, as described previously ([Schwalbe et al., 2007]), against both Gram-negative and Gram-positive foodborne pathogens and spoilage bacteria. The bacteria used were: Pseudomonas aeruginosa NCTC 10332, Salmonella enterica NCTC 5188, Escherichia coli K-12, Bacillus cereus MR59, Listeria monocytogenes 10403S, Carnobacterium divergens NCFB 2763, Leuconostoc mesenteroides NCIMB 08023, and Brochothrix thermosphacta NCDO 1676.
(§3) Two-fold dilutions were performed and 100 μL of each dilution was placed in each column of a flat bottomed 96-well plate. One column of the plate contained only the growth medium and served as the positive control while in another column contained 200 μL of the growth medium with the highest concentration of the lipopeptide tested (1,000 mg/L) and served as the negative control. Apart from the column that served as the negative control, the rest of the wells were inoculated with 100 μL of the bacterial culture tested. For the bacterial suspension preparation, cultures were incubated overnight in the appropriate medium (MHB or TSB). Bacterial density was adjusted to 0.5 McFarland and suspensions were subsequently diluted 1000 times using the growth test medium. The 96-well plates were then incubated at either 30or 37°C, depending on the optimal growth temperature of each microorganism, for 24 h and the OD620nm was assessed. The minimum inhibitory concentration (MIC) was defined as the lowest concentration of the antimicrobial agent tested that prevented any discernible growth after 24 h incubation.

[5] = system: Brochothrix thermosphacta NCDO 1676; assay: as above; format: cell-based; conditions: food preservatives, 24 h
Procedure: as §2, §3

Escherichia coli K-12 = assay: as above; format: cell-based; conditions: E. coli K-12, broth microdilution, 24 h
Procedure: as §2, §3

[6] = system: Listeria monocytogenes 10403S; assay: as above; format: cell-based; conditions: L. monocytogenes, 24 h
Procedure: as §2, §3

Bacillus cereus MR59 = assay: as above; format: cell-based; conditions: 24 h
Procedure: as §2, §3

[7] = system: Leuconostoc mesenteroides NCIMB 08023; assay: as above; format: cell-based; conditions: 24 h
Procedure: as §2, §3

[8] = system: Carnobacterium divergens NCFB 2763; assay: as above; format: cell-based; conditions: C. divergens
Procedure: as §2, §3

Vero cells = conditions: cited from earlier work; for IC50 cytotoxicity group, Vero cells: published IC50, MTT, ref literature review and EFSA database (Figure 4)
Caco-2 cells [9] = conditions: cited from earlier work; for IC50 cytotoxicity group, Caco cells: published IC50, MTT, ref literature review and EFSA database (Figure 4); for IC50: Caco-2 cells, ref Zhao et al.
Vero SF cells = assay: Cytotoxicity assay (CCK8, WST-8)
Procedure: The Vero SF cells line is recommended by EFSA to assess the toxigenic potential of Bacillus species used in animal nutrition ([EFSA, 2014]). Cells were cultured in Dulbecco’s modified Eagle’s medium supplemented with 10% FCS, 1% glutamine, and 1% penicillin-streptomycin. After 48 h, cell culture medium was replaced by fresh medium containing the tested compounds in various concentrations.
Cytotoxicity was determined through a commercial kit from SIGMA Aldrich (Saint-Louis, United States) named Cell Counting kit 8 (CCK8). This test is based on the water-soluble tetrazolium salt (WST-8) reduction by the dehydrogenase of the living cells only inducing the production of a yellow color formazan dye which is directly proportional to the number of cells. Twenty-four hours after addition the compounds, the WST-8 was added to the medium (100 μL/mL). After 2h incubation, absorption at […] was measured in a microplate-reader (Microplates reader SpectraMax® iD3, Molecular Devices, San Jose, United States) and values were expressed as percent of control.
As explained above, since some of the lipopeptides have limited solubility in aqueous solutions, prior to their cytotoxicity testing, the effect of the DMSO at the levels used to solubilize the lipopeptides, was assessed. […]

R. stolonifer = system: R. stolonifer; design: method as in Liu et al., 2014; conditions: ref Liu et al., 2014; cited from earlier work
Caco-2 cells [10] = system: Caco-2 cells
C. divergens = assay: Nisin-lipopeptide combinations, broth microdilution checkerboard panel; format: cell-based, Carnobacterium divergens; conditions: regardless of the surfactin concentrations; data not shown
Excerpt: For testing the antibacterial activity by combining nisin and lipopeptides, the broth microdilution assay described above was used, following the broth microdilution checkerboard panel ([Schwalbe et al., 2007]).

Caco-2 cells [11] = assay: Cytotoxicity assay (CCK8, WST-8); conditions: estimated IC50 of this study, 24 h of contact
Escherichia coli = system: Escherichia coli; design: method as in Dhanarajan et al., 2016; conditions: purified surfactin homologues; ref Dhanarajan et al., 2016; cited from earlier work
[12] = nisin alone, lipopeptide alone, or lipopeptide with nisin at fixed 10 mg/L

## C[C@@H]1[C@H](O)[C@@H](C)/C=C/C=C/C=C/C=C/C=C/C=C/C=C/[C@H](O[C@@H]2O[C@H](C)[C@@H](O)[C@H](N)[C@@H]2O)C[C@@H]2O[C@](O)(C[C@@H](O)C[C@@H](O)[C@H](O)CC[C@@H](O)C[C@@H](O)CC(=O)O[C@H]1C)C[C@H](O)[C@H]2C(=O)O [Amphotericin B, amphotericin B]
[1]; Rhizopus stolonifer, IMI017314, 168 h, 7 days of growth, RPMI-1640 liquid media, read-out: R. stolonifer MIC
  MIC: 0.5 µg/mL (≈ 0.541 µM)
Paecilomyces variotii; Paecilomyces variotii, 168 h, 7 days of growth, RPMI-1640 liquid media, read-out: P. variotii MIC
  MIC: 0.06 µg/mL (≈ 0.0649 µM)
[2]; Paecilomyces fulvus, IMI040021, 168 h, 7 days of growth, RPMI-1640 liquid media, read-out: B. fulva MIC
  MIC: 0.06 µg/mL (≈ 0.0649 µM)
Candida krusei ATCC 6258; 24 h growth, read-out: MIC (mg/L) 24h
  MIC: 0.5 mg/L (≈ 0.541 µM)
Candida krusei ATCC 6258; 48 h growth, read-out: MIC (mg/L) 48h
  MIC: 0.5 mg/L (≈ 0.541 µM)

## O=C(O)CN(CCN(CC(=O)O)CC(=O)O)CC(=O)O [EDTA, ethylenediaminetetraacetic acid]
Gram-positive bacteria
  MIC: 190 µM to 780 µM and 55.6 µg/mL to 228 µg/mL
[3]
  MIC: 14600 µg/mL (≈ 50000 µM)
[4]; Pseudomonas aeruginosa, NCTC10332, P. aeruginosa, read-out: MIC
  MIC: 7310 µg/mL (≈ 25000 µM)
[5]; Brochothrix thermosphacta, NCDO1676, B. thermosphacta, read-out: MIC
  MIC: 114 µg/mL (≈ 390 µM)
Escherichia coli K-12; Escherichia coli, K12, read-out: MIC
  MIC: 14600 µg/mL (≈ 50000 µM)
[6]; Listeria monocytogenes, 10403S, read-out: MIC
  MIC: 228 µg/mL (≈ 780 µM)
Bacillus cereus MR59; Bacillus cereus, MR59, B. cereus, read-out: MIC
  MIC: 228 µg/mL (≈ 780 µM)
[7]; Leuconostoc mesenteroides, NCIMB08023, L. mesenteroides, read-out: MIC
  MIC: 114 µg/mL (≈ 390 µM)
[8]; Carnobacterium divergens, NCFB2763, food preservatives, broth microdilution, 24 h, read-out: MIC
  MIC: 55.6 µg/mL

## Cc1ccc(C(C)C)cc1O [carvacol]
Vero cells
  IC50 cytotoxicity group, Vero cells: group 2 (group 2 with moderate cytotoxicity with IC50s between 10 and 100 mg/L)
Caco-2 cells [9]
  IC50 cytotoxicity group, Caco cells: group 2 (group 2 with moderate cytotoxicity with IC50s between 10 and 100 mg/L)

## C=O [formaldehyde (E240), formaldehyde]
Vero cells
  IC50 cytotoxicity group, Vero cells: group 3 (group three with significant cytotoxicity with IC50 lower than 10 mg/L)
Caco-2 cells [9]
  IC50 cytotoxicity group, Caco cells: group three (group three with significant cytotoxicity with IC50 lower than 10 mg/L)

## fengycin [Fengycin (F)]
Vero SF cells
  cytotoxicity compared to nisin (E234): less cytotoxic

## iturin
R. stolonifer
  concentration at which growth of R. stolonifer is inhibited: 100 mg/L

## iturin A
Vero cells; Vero cells, ref EFSA Panel on Additives and Products or Substances used in Animal Feed [FEEDAP], 2017
  IC50: around 16 mg/L
Vero cells
  IC50 cytotoxicity group, Vero cells: group 2 (group 2 with moderate cytotoxicity with IC50s between 10 and 100 mg/L)
Caco-2 cells [9]; 2018
  IC50: 42 µg/mL
Caco-2 cells [9]; 2019
  IC50: 28 µg/mL
Caco-2 cells [9]
  IC50 cytotoxicity group, Caco cells: group 2 (group 2 with moderate cytotoxicity with IC50s between 10 and 100 mg/L)

## mycosubtilin
Caco-2 cells [10]
  cytotoxicity compared to nisin (E234): three times less cytotoxic

## nisin
Vero SF cells; estimated IC50 of this study, 24 h of contact
  IC50 cytotoxicity group, Vero cells: group 1 (group 1 of molecules with low cytotoxicity, IC50 above 100 mg/L)
[1]; [12]
  Lipopeptide MIC (mg/L) R. stolonifer: >125 mg/L
Paecilomyces variotii; [12]
  Lipopeptide MIC (mg/L) P. variotii: >125 mg/L
[4]; P. aeruginosa
  MIC: >107.3 µg/mL
[5]; B. thermosphacta
  MIC: 0.10 to 0.20 µg/mL
Escherichia coli K-12
  MIC: >107.3 µg/mL
[6]
  MIC: 6.71 µg/mL
Bacillus cereus MR59; B. cereus
  MIC: 6.71 µg/mL
[7]; L. mesenteroides
  MIC: 1.68 µg/mL
[8]; food preservatives, broth microdilution, 24 h
  MIC: 3.35 µg/mL
[8]; nisin
  MIC: 1000 µM
C. divergens
  MIC of nisin for C. divergens when combined with surfactin: 3.35 µg/mL
[2]; [12]
  Lipopeptide MIC (mg/L) B. fulva: >125 mg/L
Candida krusei ATCC 6258; [12]
  Lipopeptide MIC (mg/L) C. krusei: >125 mg/L
Caco-2 cells [11]
  IC50 cytotoxicity group, Caco cells: group three (group three with significant cytotoxicity with IC50 lower than 10 mg/L)

## surfactin C15
Escherichia coli
  MICs: 60 mg/L
